Test results from patent US9359605B2, “Method of treating cancer by inhibition of DNA repair proteins” (Sarissa Inc., priority 2011, dated 2016).
pIC50: −log10 of the molar value. Read-outs that look alike come from different tables or passages of the source. d = 2'-deoxy (DNA); m = 2'-O-methyl

Legend:
A549b cells [1] = test: Anti-proliferative activity of a drug on A549b cells pretreated with anti-BRCA2 OLIGO/siRNA; assay type: cell-based; conditions: Homo sapiens, curves conservatively extrapolated, read-out: concentration of olaparib required to inhibit proliferation of A549b cells by 50% (IC50)
Protocol: OLIGOs were introduced into cells with the use of Lipofectamine 2000 (LFA2K) (Invitrogen, Burlington, Ontario, Canada). OLIGOs were mixed with LFA2K at a ratio of 0.2 μg/ml per 10 nM OLIGO. The mixture was prepared at 11× the final concentration to which cells were exposed, so that 200 μL was added to 2 mL of medium in which cells were plated. After incubating at room temperature for 20 minutes, according to manufacturer's instructions, the OLIGOs were added to the cell medium. The OLIGO/LFA2K mix was then incubated (37° C.) on the cells for 4 hours, after which a second volume of medium was added. Cells were then incubated for 20 hours. […]
For cells treated with the drug olaparib, for the purposes of determining whether inhibitory activity was enhanced by the OLIGO pretreatment, olaparib was added at this time, in concentrations of from 0.01 μM to 3 μM. […] Following a further 4-day incubation, the proliferation of the treated cells (fold-increase in cell number) was calculated as a percentage of that of control cells. […] As indicated in Example 1, for the purpose of determining the anti-proliferative effect of antisense OLIGOs alone, the proliferation of cells treated with antisense OLIGOs was calculated as a percent of that of cells treated with an equivalent concentration of non-complementary control OLIGO (in this case OLIGO 32). […]

A549b cells [2] = test: Proliferation of A549b cells after transfection with antisense OLIGO/siRNA (cell counting, % of control OLIGO); assay type: cell-based, human; conditions: 20 nM; compared to non-targeting OLIGO 491S; preliminary assay, FIG. 12
Protocol: Cultured cell lines were maintained in minimum essential medium a with nucleosides plus 10% fetal bovine serum and penicillin (50 units/mL)/streptomycin (50 mg/L) (growth medium). Cultures were incubated in a humidified atmosphere of 5% CO2 at 37° C. Cultured cell lines were maintained and cytotoxicity assays conducted as described previously (3). Rapidly proliferating cells were utilized for establishing cultures of experimental cells, which were allowed to plate overnight in 25-cm^2 flasks prior to manipulation. […]
OLIGOs were introduced into cells with the use of Lipofectamine 2000 (LFA2K) (Invitrogen, Burlington, Ontario, Canada). […] Following the 4-day incubation, the proliferation of the treated cells (fold-increase in cell number) was calculated as a percentage of that of control cells. […] For the purpose of determining the anti-proliferative effect of antisense OLIGOs, the proliferation of cells treated with antisense OLIGOs was calculated as a percent of that of cells treated with an equivalent concentration of non-complementary control OLIGO (in this case OLIGO 32) mixed with an equivalent amount of LFA2K.
These experiments were carried out essentially as described in Example 2, after which one volume of medium was added, and cells were further incubated for 20 hours. […] Cells were incubated for 4 days, at which time cell number was counted. […]

BRCA2 mRNA = test: RT-qPCR of BRCA2 mRNA 24 h after OLIGO transfection of A549 cells; assay type: cell-based, human; conditions: 20 nM OLIGO, 24 h post-transfection, FIG. 16
Protocol: (§1) Briefly, A549 cells seeded at a density of 2.0×10^5 per flask were transfected with 20 nM of OLIGO specific for each target or control OLIGO using Lipofectamine 2000 as the transfection reagent. Twenty four hours post-transfection mRNA was extracted and reverse transcribed into cDNA. RT-qPCR was performed for target mRNA levels using TaqMan reagents according to established protocols.

[3] = tested on: thymidylate synthase mRNA; test: RT-qPCR of TS mRNA 24 h after OLIGO transfection of A549 cells; assay type: cell-based, human; conditions: 20 nM OLIGO, 24 h post-transfection, FIG. 16
Protocol: as §1

Compound	pIC50 (A549b cells [1]; in the absence of BR1)	pIC50 (A549b cells [1]; in the presence of BR1 (pretreatment))	relative proliferation (A549b cells [2])	effect on BRCA2 mRNA level (BRCA2 mRNA)	effect on TS mRNA level [3]
O=C(c1cc(Cc2n[nH]c(=O)c3ccccc23)ccc1F)N1CCN(C(=O)C2CC2)CC1 [olaparib]	~5.30	~7.30	–	–	–
OLIGO 83: antisense to 3′-untranslated region of thymidylate synthase mRNA, 5′-gccaguGGCAACATccuuaa-3′ (SEQ ID NO: 25), fully phosphorothioated (antisense GCCAGUGGCAACATCCUUAA; sugars from the 5' end m6 d8 m6, all phosphorothioate, methylation of C not given here)	–	–	approximately 20%	no significant effect	reduce
